Values after ≈ are worked out from the molar mass of the structure shown. Some results are limits rather than exact numbers.

One experiment relates to Aspergillus fumigatus. As to the kind of experiment: Antifungal activity against Aspergillus fumigatus 293 after 48 hrs by two-fold serial dilution method. The note with it: Af293, 48 h. It is filed as functional.
As for `O=C(CSCc1nc2cc([N+](=O)[O-])ccc2[nH]1)NNC(=S)Nc1ccccc1`, inhibition of growth (MIC) required 750 µM.
The same measure, in the same setting: then `NC(=O)CSCc1nc2cc([N+](=O)[O-])ccc2[nH]1`, with 293 µM; and `NNC(=O)CSCc1nc2cc([N+](=O)[O-])ccc2[nH]1`, with 4440 µM; and `O=C(CSCc1nc2cc([N+](=O)[O-])ccc2[nH]1)N/N=C/c1ccc(Cl)cc1`, with 1550 µM.
`O=[N+]([O-])c1ccc2[nH]c(CSCc3nc4ccccc4[nH]3)nc2c1` returned an MIC greater than 2500 mg/L.

Another experiment has as its system Candida albicans. The experiment can be described thus: Antifungal activity against Candida albicans after 48 hrs by two-fold serial dilution method. Type of experiment: functional.
Conditions: not given
In turn, `O=C(CSCc1nc2cc([N+](=O)[O-])ccc2[nH]1)NNC(=S)Nc1ccccc1` displayed an MIC of 375 µM (≈ 156 µg/mL).
As to `NC(=O)CSCc1nc2cc([N+](=O)[O-])ccc2[nH]1`, the lowest concentration to inhibit growth (MIC) was 147 µM (≈ 39.1 µg/mL).
Same read-out and setting: then `NNC(=O)CSCc1nc2cc([N+](=O)[O-])ccc2[nH]1`, with 1110 µM (≈ 312 µg/mL); and `O=C(CSCc1nc2cc([N+](=O)[O-])ccc2[nH]1)N/N=C/c1ccc(Cl)cc1`, with 774 µM (≈ 312 µg/mL).
`O=[N+]([O-])c1ccc2[nH]c(CSCc3nc4ccccc4[nH]3)nc2c1` registered an MIC of 3680 µM (≈ 1250 µg/mL).

A further experiment has as its system Chromobacterium violaceum. The experiment can be described thus: Inhibition of quorum sensing system in Chromobacterium violaceum ATCC 12472 assessed as diameter of violacein pigment inhibition at 5 mg/ml after 48 hrs.
Conditions: not given
With `O=C(CSCc1nc2cc([N+](=O)[O-])ccc2[nH]1)NNC(=S)Nc1ccccc1`, the Activity is less than 2 mm.
The same measure, in the same setting: then `NC(=O)CSCc1nc2cc([N+](=O)[O-])ccc2[nH]1`, with 9 mm; and `NNC(=O)CSCc1nc2cc([N+](=O)[O-])ccc2[nH]1`, with less than 2 mm.
Still for that read-out and setting: in the case of `O=C(CSCc1nc2cc([N+](=O)[O-])ccc2[nH]1)N/N=C/c1ccc(Cl)cc1` it was less than 2 mm; in that of `O=[N+]([O-])c1ccc2[nH]c(CSCc3nc4ccccc4[nH]3)nc2c1`, 4 mm.

The next experiment relates to Escherichia coli. As to the kind of experiment: Antibacterial activity against Escherichia coli ATCC 12435 after 24 hrs by two-fold serial dilution method. Type of experiment: functional. The note with it: ATCC 12435, 24 h.
Regarding `O=C(CSCc1nc2cc([N+](=O)[O-])ccc2[nH]1)NNC(=S)Nc1ccccc1`, the MIC was greater than 2500 mg/L.
In turn, `NC(=O)CSCc1nc2cc([N+](=O)[O-])ccc2[nH]1` had an MIC of 587 µM.
In turn, `NNC(=O)CSCc1nc2cc([N+](=O)[O-])ccc2[nH]1` showed an MIC greater than 2500 mg/L.
The molecule `O=C(CSCc1nc2cc([N+](=O)[O-])ccc2[nH]1)N/N=C/c1ccc(Cl)cc1` registered an MIC greater than 2500 mg/L.
Still for that read-out and setting: then `O=[N+]([O-])c1ccc2[nH]c(CSCc3nc4ccccc4[nH]3)nc2c1`, with greater than 2500 mg/L.

In a further experiment the test system is Bacillus cereus. The experiment can be described thus: Antibacterial activity against Bacillus cereus UW 85 after 24 hrs by two-fold serial dilution method. The note with it: UW 85, 24 h. It is filed as functional.
In the case of `O=C(CSCc1nc2cc([N+](=O)[O-])ccc2[nH]1)NNC(=S)Nc1ccccc1`, the MIC is greater than 2500 mg/L.
Molecule `NC(=O)CSCc1nc2cc([N+](=O)[O-])ccc2[nH]1` returned a minimum inhibitory concentration (MIC) of 293 µM.
On the same count and under the same terms, then `NNC(=O)CSCc1nc2cc([N+](=O)[O-])ccc2[nH]1`, with greater than 2500 mg/L; and `O=C(CSCc1nc2cc([N+](=O)[O-])ccc2[nH]1)N/N=C/c1ccc(Cl)cc1`, with greater than 2500 mg/L.
As for `O=[N+]([O-])c1ccc2[nH]c(CSCc3nc4ccccc4[nH]3)nc2c1`, the MIC is greater than 2500 mg/L.

A further experiment has as its system Staphylococcus aureus. As to the kind of experiment: Antibacterial activity against Staphylococcus aureus ATCC 29213 after 24 hrs by two-fold serial dilution method. It is filed as functional. The note with it: ATCC 29213, 24 h.
Molecule `O=C(CSCc1nc2cc([N+](=O)[O-])ccc2[nH]1)NNC(=S)Nc1ccccc1` gave an MIC greater than 2500 mg/L.
With `NC(=O)CSCc1nc2cc([N+](=O)[O-])ccc2[nH]1`, the MIC is 147 µM.
`NNC(=O)CSCc1nc2cc([N+](=O)[O-])ccc2[nH]1`: the MIC was greater than 2500 mg/L.
`O=C(CSCc1nc2cc([N+](=O)[O-])ccc2[nH]1)N/N=C/c1ccc(Cl)cc1` registered an MIC greater than 2500 mg/L.
On the same count and under the same terms, in the case of `O=[N+]([O-])c1ccc2[nH]c(CSCc3nc4ccccc4[nH]3)nc2c1` it was 3680 µM.

Target in a further experiment: not listed separately
As to the kind of experiment: Displacement of methyl green from DNA (unknown origin) incubated in dark for 24 hrs by colorimetric method.
Conditions: not given
Take `O=C(CSCc1nc2cc([N+](=O)[O-])ccc2[nH]1)NNC(=S)Nc1ccccc1`: the half-inhibitory concentration (IC50) turned out to be 52.3 µM.
The molecule `NC(=O)CSCc1nc2cc([N+](=O)[O-])ccc2[nH]1` showed an IC50 of 41.3 µM.
Take `NNC(=O)CSCc1nc2cc([N+](=O)[O-])ccc2[nH]1`: the half-maximal inhibitory concentration (IC50) turned out to be 87.2 µM.

The subject of the next experiment is HepG2. The experiment can be described thus: Cytotoxicity against human HepG2 cells assessed as decrease in cell viability after 48 hrs by MTT assay. Type of experiment: functional, cell-based. The note with it: HepG2, 48 h.
As to `O=C(CSCc1nc2cc([N+](=O)[O-])ccc2[nH]1)NNC(=S)Nc1ccccc1`, the IC50 is greater than 100 µM.
Consider `NC(=O)CSCc1nc2cc([N+](=O)[O-])ccc2[nH]1`, for which the IC50 was found to be 26.9 µM.
As to `NNC(=O)CSCc1nc2cc([N+](=O)[O-])ccc2[nH]1`, the IC50 amounted to 18.6 µM.
The same measure, in the same setting: then `O=C(CSCc1nc2cc([N+](=O)[O-])ccc2[nH]1)N/N=C/c1ccc(Cl)cc1`, with 56.8 µM; and `O=[N+]([O-])c1ccc2[nH]c(CSCc3nc4ccccc4[nH]3)nc2c1`, with 11.2 µM.

The next experiment concerns MCF7. The experiment can be described thus: Cytotoxicity against human MCF7 cells assessed as decrease in cell viability after 48 hrs by MTT assay. It is filed as functional, cell-based. The note with it: MCF7, 48 h.
Regarding `O=C(CSCc1nc2cc([N+](=O)[O-])ccc2[nH]1)NNC(=S)Nc1ccccc1`, the IC50 is greater than 100 µM.
Regarding `NC(=O)CSCc1nc2cc([N+](=O)[O-])ccc2[nH]1`, the IC50 amounted to 19.7 µM.
Take `NNC(=O)CSCc1nc2cc([N+](=O)[O-])ccc2[nH]1`: the IC50 came out at 13.2 µM.
`O=C(CSCc1nc2cc([N+](=O)[O-])ccc2[nH]1)N/N=C/c1ccc(Cl)cc1`: the IC50 stood at 13.7 µM.
As for `O=[N+]([O-])c1ccc2[nH]c(CSCc3nc4ccccc4[nH]3)nc2c1`, the IC50 amounted to 13.1 µM.

A further experiment has as its system HCT-116. As to the kind of experiment: Cytotoxicity against human HCT116 cells assessed as decrease in cell viability after 48 hrs by MTT assay. Type of experiment: functional, cell-based. The note with it: HCT-116, 48 h.
As to `O=C(CSCc1nc2cc([N+](=O)[O-])ccc2[nH]1)NNC(=S)Nc1ccccc1`, the IC50 was 29.2 µM.
For the molecule `NC(=O)CSCc1nc2cc([N+](=O)[O-])ccc2[nH]1`, the IC50 came out at 17.2 µM.
On the same count and under the same terms, then `NNC(=O)CSCc1nc2cc([N+](=O)[O-])ccc2[nH]1`, with 5.33 µM.
In the case of `O=C(CSCc1nc2cc([N+](=O)[O-])ccc2[nH]1)N/N=C/c1ccc(Cl)cc1`, the IC50 turned out to be 15.3 µM.
In the case of `O=[N+]([O-])c1ccc2[nH]c(CSCc3nc4ccccc4[nH]3)nc2c1`, the IC50 was 7.91 µM.

For the origin of these results see ChEMBL document CHEMBL4118070, “Synthesis, antimicrobial, antiquorum-sensing and antitumor activities of new benzimidazole analogs” (Eur J Med Chem, 2017).
